Assay results: US12577228B2, “Dihydrocyclopenta-isoquinoline-sulfonamide derivatives compounds” (UCB Biopharma SRL, priority 2019, dated 2026)

molecular target: T1, IgE-Tb / soluble IgE receptor FcεRIα with a Y131A mutation (Homo sapiens, UniProt P01854, N146Q/N252Q); assay: in vitro FRET assay: binding of IgE-Tb to receptor FcεRIα-Y131A-AF488 and its inhibition by compounds; details: 5 nM IgE-Tb, 25 nM FcεRIα-Y131A-AF488, 2 hours at room temperature; read-out: FRET IC50 range
T1 construct: fused on or other part: Terbium chelate (LanthaScreen amine-reactive) on IgE-Fc; Alexa Fluor 488 hydrazide on the oxidised glycans of sFcεRIα; Both are labels and no part of the key
T1 sequence (P01854 104-427 N146Q/N252Q): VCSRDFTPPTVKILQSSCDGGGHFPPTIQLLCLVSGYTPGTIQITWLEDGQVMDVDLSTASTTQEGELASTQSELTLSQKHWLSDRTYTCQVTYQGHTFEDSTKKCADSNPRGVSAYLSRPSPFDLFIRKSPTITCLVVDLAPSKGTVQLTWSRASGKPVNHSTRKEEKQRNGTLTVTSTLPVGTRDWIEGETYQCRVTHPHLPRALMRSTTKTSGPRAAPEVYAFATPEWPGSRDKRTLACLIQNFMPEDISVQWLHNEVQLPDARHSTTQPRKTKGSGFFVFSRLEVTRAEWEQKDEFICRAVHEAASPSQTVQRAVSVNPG
T1 sequence (P12319 26-201 Y156A partner): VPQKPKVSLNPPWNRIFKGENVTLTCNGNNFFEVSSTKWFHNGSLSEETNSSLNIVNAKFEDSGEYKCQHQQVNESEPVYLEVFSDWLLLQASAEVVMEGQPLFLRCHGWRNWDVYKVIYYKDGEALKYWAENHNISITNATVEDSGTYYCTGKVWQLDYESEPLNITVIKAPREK

Row | Compound | IC50
1 | CC(C)(F)CNS(=O)(=O)c1c2c(cc3cnc(C4CC4)cc13)C[C@@H](Nc1ccc(C(=O)O)nc1)C2 [Example 15, 5-[[(7R)-3-cyclopropyl-5-[(2-fluoro-2-methylpropyl)sulfamoyl]-7,8-dihydro-6H-cyclopenta[g]isoquinolin-7-yl]amino]pyridine-2-carboxylic acid] | 10 to 50 nM
2 | CNS(=O)(=O)c1ccc(N[C@@H]2Cc3cc4cnc(C5CC5)cc4c(S(=O)(=O)NCC(C)(C)F)c3C2)cn1 [Example 93, (7R)-3-cyclopropyl-N-(2-fluoro-2-methylpropyl)-7-[[6-(methylsulfamoyl)pyridin-3-yl]amino]-7,8-dihydro-6H-cyclopenta[g]isoquinoline-5-sulfonamide] | 10 to 50 nM
3 | CC(C)(F)CNS(=O)(=O)c1c2c(cc3cnc(C4CC4)cc13)CC(c1nc3ccncc3[nH]1)C2 (centres unmarked) [Example 56, 3-cyclopropyl-N-(2-fluoro-2-methylpropyl)-7-(3H-imidazo[4,5-c]pyridin-2-yl)-7,8-dihydro-6H-cyclopenta[g]isoquinoline-5-sulfonamide] | 50 to 100 nM
4 | Cc1ccc(Oc2cncc(N[C@@H]3Cc4cc5cnc(C6CC6)cc5c(S(=O)(=O)NCC(C)(C)F)c4C3)c2)cn1 [Example 10, (7R)-3-cyclopropyl-N-(2-fluoro-2-methylpropyl)-7-[[5-(6-methylpyridin-3-yl)oxypyridin-3-yl]amino]-7,8-dihydro-6H-cyclopenta[g]isoquinoline-5-sulfonamide] | 1 to 10 nM
5 | Cn1nccc1C(=O)NC1Cc2cc3cnc(C4CC4)cc3c(S(=O)(=O)NCC(C)(C)F)c2C1 (centres unmarked) [Example 104, N-[3-cyclopropyl-5-[(2-fluoro-2-methylpropyl)sulfamoyl]-7,8-dihydro-6H-cyclopenta[g]isoquinolin-7-yl]-2-methylpyrazole-3-carboxamide] | 50 to 100 nM
6 | CC(C)CNS(=O)(=O)N1Cc2cc3cnc(C4CC4)cc3c(S(=O)(=O)NCC(C)(C)F)c2C1 [Example 99, 7-cyclopropyl-9-N-(2-fluoro-2-methylpropyl)-2-N-(2-methylpropyl)-1,3-dihydropyrrolo[3,4-g]isoquinoline-2,9-disulfonamide] | 100 to 2000 nM
7 | CC(=O)Nc1c2c(c(S(=O)(=O)NCC(C)C)c3cc(C4CC4)ncc13)CCC2 [Example 22, N-[3-cyclopropyl-5-(2-methylpropylsulfamoyl)-7,8-dihydro-6H-cyclopenta[g]isoquinolin-9-yl]acetamide] | 100 to 2000 nM
8 | CC(C)CNS(=O)(=O)c1c2c(cc3cnc(C4CC4)cc13)CC1(c3ncc(-c4cccnc4)[nH]3)CC21 (centres unmarked) [Example 2, 13-cyclopropyl-˜{N}-(2-methylpropyl)-6-(5-pyridin-3-yl-1˜{H}-imidazol-2-yl)-12-azatetracyclo[8.4.0.0^{3,8}.0^{4,6}]tetradeca-1,3 (8),9,11,13-pentaene-2-sulfonamide] | 10 to 50 nM
9 | CC(C)CNS(=O)(=O)c1c2c(cc3cnc(C4CC4)cc13)CCC2O (centres unmarked) [Example 48, 3-cyclopropyl-6-hydroxy-N-(2-methylpropyl)-7,8-dihydro-6H-cyclopenta[g]isoquinoline-5-sulfonamide] | 100 to 2000 nM
10 | CC(C)CNS(=O)(=O)c1c2c(cc3cnc(C4CC4)cc13)CC(C(=O)NCC(C)(C)C)C2 (centres unmarked) [Example 54, 3-cyclopropyl-N-(2,2-dimethylpropyl)-5-(2-methylpropylsulfamoyl)-7,8-dihydro-6H-cyclopenta[g]isoquinoline-7-carboxamide] | 10 to 50 nM
11 | CC(C)(F)CNS(=O)(=O)c1c2c(cc3cnc(C4CC4)cc13)C[C@@H](Nc1ccc(C(N)=O)nc1)C2 [Example 11, 5-[[(7R)-3-cyclopropyl-5-[(2-fluoro-2-methylpropyl)sulfamoyl]-7,8-dihydro-6H-cyclopenta[g]isoquinolin-7-yl]amino]pyridine-2-carboxamide] | 10 to 50 nM
12 | Cc1nnc(NC2Cc3cc4cnc(C5CC5)cc4c(S(=O)(=O)NCC(C)(C)F)c3C2)o1 (centres unmarked) [Example 97, 3-cyclopropyl-N-(2-fluoro-2-methylpropyl)-7-[(5-methyl-1,3,4-oxadiazol-2-yl)amino]-7,8-dihydro-6H-cyclopenta[g]isoquinoline-5-sulfonamide] | 100 to 2000 nM
13 | CC(C)(F)CNS(=O)(=O)c1c2c(cc3cnc(C4CC4)cc13)CC(c1ccno1)C2 (centres unmarked) [Example 79, 3-cyclopropyl-N-(2-fluoro-2-methylpropyl)-7-(1,2-oxazol-5-yl)-7,8-dihydro-6H-cyclopenta[g]isoquinoline-5-sulfonamide] | 100 to 2000 nM
14 | CC(C)(F)CNS(=O)(=O)c1c2c(cc3cnc(C4CC4)cc13)C[C@@H](NC(=O)c1c[nH]c3ccc(F)cc13)C2 [Example 131, N-[(7R)-3-cyclopropyl-5-[(2-fluoro-2-methylpropyl)sulfamoyl]-7,8-dihydro-6H-cyclopenta[g]isoquinolin-7-yl]-5-fluoro-1H-indole-3-carboxamide] | 10 to 50 nM
15 | Cc1ncccc1-n1cnnc1NC1Cc2cc3cnc(C4CC4)cc3c(S(=O)(=O)NCC(C)(C)F)c2C1 (centres unmarked) [Example 78, 3-cyclopropyl-N-(2-fluoro-2-methylpropyl)-7-[[4-(2-methylpyridin-3-yl)-1,2,4-triazol-3-yl]amino]-7,8-dihydro-6H-cyclopenta[g]isoquinoline-5-sulfonamide] | 100 to 2000 nM
16 | CC(C)CNS(=O)(=O)c1c2c(cc3cnc(C4CC4)cc13)CCC2 [Example 69, 3-cyclopropyl-N-isobutyl-7,8-dihydro-6H-cyclopenta[g]isoquinoline-5-sulfonamide] | 50 to 100 nM
17 | CC(C)CNS(=O)(=O)c1c2c(cc3cnc(C4CC4)cc13)CC(Nc1nncn1CC1CC1)C2 (centres unmarked) [Example 5, 3-cyclopropyl-7-[[4-(cyclopropylmethyl)-1,2,4-triazol-3-yl]amino]-N-(2-methylpropyl)-7,8-dihydro-6H-cyclopenta[g]isoquinoline-5-sulfonamide] | 10 to 50 nM
18 | CC(C)(F)CNS(=O)(=O)c1c2c(cc3cnc(C4CC4)cc13)CC(n1ccnc1NCC1CC1)C2 (centres unmarked) [Example 58, 3-cyclopropyl-7-[2-(cyclopropylmethylamino)imidazol-1-yl]-N-(2-fluoro-2-methylpropyl)-7,8-dihydro-6H-cyclopenta[g]isoquinoline-5-sulfonamide] | 100 to 2000 nM
19 | CC(C)NC(=O)c1ccc(N[C@@H]2Cc3cc4cnc(C5CC5)cc4c(S(=O)(=O)NCC(C)(C)F)c3C2)cn1 [Example 77, 5-[[(7R)-3-cyclopropyl-5-[(2-fluoro-2-methylpropyl)sulfamoyl]-7,8-dihydro-6H-cyclopenta[g]isoquinolin-7-yl]amino]-N-propan-2-ylpyridine-2-carboxamide] | 10 to 50 nM
20 | COc1ccc2c(C(=O)N[C@@H]3Cc4cc5cnc(C6CC6)cc5c(S(=O)(=O)NCC(C)(C)F)c4C3)c[nH]c2c1 [Example 133, N-[(7R)-3-cyclopropyl-5-[(2-fluoro-2-methylpropyl)sulfamoyl]-7,8-dihydro-6H-cyclopenta[g]isoquinolin-7-yl]-6-methoxy-1H-indole-3-carboxamide] | 10 to 50 nM
21 | CC(C)(F)CNS(=O)(=O)c1c2c(cc3cnc(C4CC4)cc13)C[C@@H](NC(=O)c1ccc3[nH]nnc3c1)C2 [Example 34, N-[(7R)-3-cyclopropyl-5-[(2-fluoro-2-methylpropyl)sulfamoyl]-7,8-dihydro-6H-cyclopenta[g]isoquinolin-7-yl]-1H-benzotriazole-5-carboxamide] | 10 to 50 nM
22 | CC(O)CNS(=O)(=O)c1c2c(cc3cnc(C4CC4)cc13)CCC2 (centres unmarked) [Example 17, 3-cyclopropyl-N-(2-hydroxypropyl)-7,8-dihydro-6H-cyclopenta[g]isoquinoline-5-sulfonamide] | 100 to 2000 nM
23 | CC(C)(F)CNS(=O)(=O)c1c2c(cc3cnc(C4CC4)cc13)CC(Nc1cc[nH]c(=O)c1)C2 (centres unmarked) [Example 63, 3-cyclopropyl-N-(2-fluoro-2-methylpropyl)-7-[(2-oxo-1H-pyridin-4-yl)amino]-7,8-dihydro-6H-cyclopenta[g]isoquinoline-5-sulfonamide] | 10 to 50 nM
24 | Cc1nnc(-c2ncc(N[C@@H]3Cc4cc5cnc(C6CC6)cc5c(S(=O)(=O)NCC(C)(C)F)c4C3)cn2)o1 [Example 129, (7R)-3-cyclopropyl-N-(2-fluoro-2-methylpropyl)-7-[[2-(5-methyl-1,3,4-oxadiazol-2-yl)pyrimidin-5-yl]amino]-7,8-dihydro-6H-cyclopenta[g]isoquinoline-5-sulfonamide] | 10 to 50 nM
25 | CC1(CNS(=O)(=O)c2c3c(cc4cnc(C5CC5)cc24)CC(C(=O)Nc2cccnc2)C3)COC1 (centres unmarked) [Example 9, 3-cyclopropyl-5-[(3-methyloxetan-3-yl)methylsulfamoyl]-N-pyridin-3-yl-7,8-dihydro-6H-cyclopenta[g]isoquinoline-7-carboxamide] | 100 to 2000 nM
26 | CC(C)(F)CNS(=O)(=O)c1c2c(cc3cnc(C4CC4)cc13)C[C@@H](Nc1ccc(C(C)(C)O)nc1)C2 [Example 39, (7R)-3-cyclopropyl-N-(2-fluoro-2-methylpropyl)-7-[[6-(2-hydroxypropan-2-yl)pyridin-3-yl]amino]-7,8-dihydro-6H-cyclopenta[g]isoquinoline-5-sulfonamide] | 10 to 50 nM
27 | NC(=O)c1ccc(N[C@@H]2Cc3cc4cnc(C5CC5)cc4c(S(=O)(=O)NC4CC(F)(F)C4)c3C2)nn1 [Example 94, 6-[[(7R)-3-cyclopropyl-5-[(3,3-difluorocyclobutyl)sulfamoyl]-7,8-dihydro-6H-cyclopenta[g]isoquinolin-7-yl]amino]pyridazine-3-carboxamide] | 10 to 50 nM
28 | Cc1ccc(NC2Cc3cc4cnc(C5CC5)cc4c(S(=O)(=O)NCC(C)(C)O)c3C2)nn1 (centres unmarked) [Example 80, 3-cyclopropyl-N-(2-hydroxy-2-methylpropyl)-7-[(6-methylpyridazin-3-yl)amino]-7,8-dihydro-6H-cyclopenta[g]isoquinoline-5-sulfonamide] | 100 to 2000 nM
29 | Cn1nnc(-c2ccc(N[C@@H]3Cc4cc5cnc(C6CC6)cc5c(S(=O)(=O)NCC(C)(C)F)c4C3)cc2)n1 [Example 125, (7R)-3-cyclopropyl-N-(2-fluoro-2-methylpropyl)-7-[4-(2-methyltetrazol-5-yl)anilino]-7,8-dihydro-6H-cyclopenta[g]isoquinoline-5-sulfonamide] | 50 to 100 nM
